Drawing on patent publication US12336981B2, “Compounds and compositions for the inhibition of NAMPT” (Valo Health, Inc., priority 2010, dated 2025), this text covers IC50 for 42 compounds.

One assay has as its system A2780 cells. Kind of assay: In-vitro cell proliferation assay (SRB), A2780 cells. Particulars: Homo sapiens, A2780, 72 h, A2780 cells, 72 hours, read-out: A2780 IC50. Format: cell-based. A digest of the protocol: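 Cells were plated overnight at 37° C., 5% CO2, then exposed to serially diluted compounds (0.1% DMSO final) for 72 hours. Viable cells were measured by sulforhodamine B staining after TCA fixation, read at 570 nm; media-only background was subtracted before % inhibition was calculated.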

The next assay has as its target T1, NAMPT (Homo sapiens, UniProt P43490).
T1 construct: His tag; host or cells: E. coli
Kind of assay: Biochemical inhibition assay: NAMPT enzymatic reaction, NMN quantified by mass spectrometry. Particulars: read-out: Biochem IC50. A digest of the protocol:
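Inhibition of E. coli-expressed His-tagged human NAMPT, measured as NMN formation by mass spectrometry after a 30 min room-temperature reaction containing 1 μM NAM, 100 μM PRPP and 2.5 mM ATP.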

Like-named read-outs stand apart in the source and are kept apart here.

T1 sequence (P43490 whole entry): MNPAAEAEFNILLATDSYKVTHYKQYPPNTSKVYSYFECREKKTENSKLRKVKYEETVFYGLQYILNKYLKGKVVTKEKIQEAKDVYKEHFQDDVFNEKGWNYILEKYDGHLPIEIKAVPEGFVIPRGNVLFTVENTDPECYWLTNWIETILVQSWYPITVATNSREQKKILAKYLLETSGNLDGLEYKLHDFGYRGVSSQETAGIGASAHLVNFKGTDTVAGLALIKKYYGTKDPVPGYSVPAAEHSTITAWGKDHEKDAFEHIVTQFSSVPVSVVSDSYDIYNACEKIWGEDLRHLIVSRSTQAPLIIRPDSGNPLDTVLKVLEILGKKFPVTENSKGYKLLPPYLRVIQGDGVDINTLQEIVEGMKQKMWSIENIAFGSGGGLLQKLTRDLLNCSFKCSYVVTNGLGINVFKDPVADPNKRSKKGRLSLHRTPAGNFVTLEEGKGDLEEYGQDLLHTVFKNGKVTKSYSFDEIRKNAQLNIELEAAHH

As to `O=C(NCc1ccc(S(=O)(=O)c2cccc3c2OCO3)cc1)c1cc2ccncc2s1` [N-{[4-(2H-1,3-benzodioxole-4-sulfonyl)phenyl]methyl}thieno[2,3-c]pyridine-2-carboxamide], the figures for the IC50 with A2780 cells (SRB) and at NAMPT (NAMPT enzymatic assay) were 7.2 nM and 3.3 nM, respectively.

With `CC(C)COc1cc(F)cc(S(=O)(=O)c2ccc(CNC(=O)c3cc4cnccc4[nH]3)cc2)c1`, the IC50 (in general, the concentration that gives 50% inhibition) with A2780 cells (SRB) stood at 7 nM; on NAMPT (NAMPT enzymatic assay), 13.2 nM.

For `CC(C)Oc1cc(F)ccc1S(=O)(=O)c1ccc(CNC(=O)c2cnc3nccn3c2)cc1` [N-[(4-{[4-fluoro-2-(propan-2-yloxy)benzene]sulfonyl}phenyl)methyl]imidazo[1,2-a]pyrimidine-6-carboxamide], the IC50 worked out at 15 nM in the assay with A2780 cells (SRB) and 3.5 nM at NAMPT (NAMPT enzymatic assay).

As for `Cc1cc(C)n(-c2cccc(S(=O)(=O)c3ccc(CNC(=O)c4cnc5[nH]ncc5c4)cc3)c2)n1`, the values for the IC50 with A2780 cells (SRB) and at NAMPT (NAMPT enzymatic assay) were 5.3 nM and 25.3 nM, respectively.

As to `COc1ccc(S(=O)(=O)c2ccc(CNC(=O)c3cc4ccncc4s3)cc2)c(C(F)(F)F)c1`, the IC50 in the assay with A2780 cells (SRB) came out at 13 nM; on NAMPT (NAMPT enzymatic assay), 21.7 nM.

For `O=C(NCc1ccc(S(=O)(=O)Nc2cccc3c(=O)occc23)cc1)c1cc2cnccc2[nH]1` [N-({4-[(1-oxo-1H-isochromen-5-yl)sulfamoyl]phenyl}methyl)-1H-pyrrolo[3,2-c]pyridine-2-carboxamide], the IC50 with A2780 cells (SRB assay) was determined as 2270 nM; on NAMPT (NAMPT enzymatic reaction), 8 nM.

For the compound `CCCCOc1cccc(S(=O)(=O)c2ccc(CNC(=O)c3cc4ccncc4o3)cc2)c1` [N-({4-[(3-butoxybenzene)sulfonyl]phenyl}methyl)furo[2,3-c]pyridine-2-carboxamide], the concentration for half-maximal inhibition (IC50) was 69.5 nM in the assay on A2780 cells (SRB) and 12.3 nM at NAMPT (NAMPT enzymatic reaction).

Turning to `O=C(NCc1ccc(S(=O)(=O)c2ccc3c(c2)OCO3)cc1)c1ccc2nccn2c1` [N-{[4-(2H-1,3-benzodioxole-5-sulfonyl)phenyl]methyl}imidazo[1,2-a]pyridine-6-carboxamide], the results for the IC50 in the assay with A2780 cells (SRB) and at NAMPT (NAMPT enzymatic assay) were 5.33 nM and 10.7 nM, respectively.

For `CNC(=O)c1cccc(S(=O)(=O)c2ccc(CNC(=O)c3cnc4nccn4c3)cc2)c1`, the IC50 with A2780 cells (SRB) was 100 to 1000 nM; at NAMPT (NAMPT enzymatic assay), 3.7 nM.

For the compound `COc1cc(-n2cccn2)ccc1S(=O)(=O)c1ccc(CNC(=O)c2ccc3nccn3c2)cc1` [N-[(4-{[2-methoxy-4-(1H-pyrazol-1-yl)benzene]sulfonyl}phenyl)methyl]imidazo[1,2-a]pyridine-6-carboxamide], the IC50 in the assay with A2780 cells (SRB) worked out at 3.59 nM; on NAMPT (NAMPT enzymatic assay) it was 21 nM.

`CSc1ccc(S(=O)(=O)c2ccc(CNC(=O)c3cc4ccncc4s3)cc2)cc1F`: the IC50 with A2780 cells (SRB) was determined as 2 nM; on NAMPT (NAMPT enzymatic assay), 2.2 nM.

As to `O=C(NCc1ccc(S(=O)(=O)c2ccc(C(F)(F)F)c(F)c2)cc1)c1cc2cnccc2[nH]1` [N-[(4-{[3-fluoro-4-(trifluoromethyl)benzene]sulfonyl}phenyl)methyl]-1H-pyrrolo[3,2-c]pyridine-2-carboxamide], the IC50 in the assay with A2780 cells (SRB) came to 13 nM; at NAMPT (NAMPT enzymatic assay), 10.3 nM.

As to `Cc1ccc(F)c(S(=O)(=O)c2ccc(CNC(=O)c3cnc4nccn4c3)cc2)c1`, the IC50 in the assay with A2780 cells (SRB) turned out to be 27.5 nM; at NAMPT (NAMPT enzymatic reaction) it was 6.8 nM.

As for `O=C(NCc1ccc(S(=O)(=O)c2cccc3c2OCO3)cc1)c1cc2ccncc2o1` [N-{[4-(2H-1,3-benzodioxole-4-sulfonyl)phenyl]methyl}furo[2,3-c]pyridine-2-carboxamide], the IC50 in the assay on A2780 cells (SRB) is 26.6 nM; on NAMPT (NAMPT enzymatic assay) it was 25.8 nM.

`O=C(NCc1ccc(S(=O)(=O)c2cnc3ccc(Cl)cn23)cc1)c1cc2ccncc2o1` [N-[(4-{6-chloroimidazo[1,2-a]pyridine-3-sulfonyl}phenyl)methyl]furo[2,3-c]pyridine-2-carboxamide]: the IC50 with A2780 cells (SRB) was found to be 0.4 nM; on NAMPT (NAMPT enzymatic assay), 1.2 nM.

`COc1cccc(Cl)c1S(=O)(=O)c1ccc(CNC(=O)c2cc3ccncc3o2)cc1`: the IC50 in the assay on A2780 cells (SRB) is 21.4 nM; at NAMPT (NAMPT enzymatic reaction) it was 16.7 nM.

For `O=C(NCc1ccc(S(=O)(=O)c2ccc(Cl)c(C(F)(F)F)c2)cc1)c1ccc2nccn2c1` [N-[(4-{[4-chloro-3-(trifluoromethyl)benzene]sulfonyl}phenyl)methyl]imidazo[1,2-a]pyridine-6-carboxamide], the 50% inhibitory concentration (IC50) was found to be 3.57 nM in the assay on A2780 cells (SRB) and 9.84 nM at NAMPT (NAMPT enzymatic assay).

As to `COc1cc(F)ccc1NS(=O)(=O)c1ccc(CNC(=O)c2cc3cnccc3[nH]2)cc1` [N-({4-[(4-fluoro-2-methoxyphenyl)sulfamoyl]phenyl}methyl)-1H-pyrrolo[3,2-c]pyridine-2-carboxamide], the IC50 was above 30000 nM with A2780 cells (SRB assay) and 3140 nM at NAMPT (NAMPT enzymatic reaction).

Consider `O=C(NCc1ccc(S(=O)(=O)c2cc(F)ccc2CO)cc1)c1cc2ccncc2o1` [N-[(4-{[5-fluoro-2-(hydroxymethyl)benzene]sulfonyl}phenyl)methyl]furo[2,3-c]pyridine-2-carboxamide], for which the IC50 in the assay with A2780 cells (SRB) was found to be 67 nM; on NAMPT (NAMPT enzymatic assay), 22.9 nM.

Consider `O=C(NCc1ccc(S(=O)(=O)c2cc(C(F)(F)F)ccc2Cl)cc1)c1cc2ccncc2o1`, for which the figures for the IC50 in the assay on A2780 cells (SRB) and on NAMPT (NAMPT enzymatic assay) were 14.1 nM and 13.9 nM, respectively.

`O=C(NCc1ccc(S(=O)(=O)c2ccc(C3CCCCC3)cc2)cc1)c1cnc2nccn2c1`: the values for the IC50 with A2780 cells (SRB) and at NAMPT (NAMPT enzymatic reaction) were 7.7 nM and 5.8 nM, respectively.

On to `CCOc1cc(F)ccc1S(=O)(=O)c1ccc(CNC(=O)c2cc3ccncc3s2)cc1`, for which the IC50 turned out to be 0.9 nM with A2780 cells (SRB) and 3.8 nM at NAMPT (NAMPT enzymatic reaction).

Regarding `O=C(NCc1ccc(S(=O)(=O)c2cncc3ccccc23)cc1)c1cnc2[nH]ncc2c1` [N-{[4-(isoquinoline-4-sulfonyl)phenyl]methyl}-1H-pyrazolo[3,4-b]pyridine-5-carboxamide], the 50% inhibitory concentration (IC50) amounted to 2.5 nM with A2780 cells (SRB) and 3.7 nM on NAMPT (NAMPT enzymatic assay).

Take `CN(C)CCc1cccc(S(=O)(=O)c2ccc(CNC(=O)c3cnc4nccn4c3)cc2)c1`: the concentration for half-maximal inhibition (IC50) was 100 to 1000 nM with A2780 cells (SRB) and 3.5 nM at NAMPT (NAMPT enzymatic assay).

As for `O=C(NCc1ccc(S(=O)(=O)c2ccc(Cl)c(F)c2)cc1)c1cc2ccncc2o1`, the IC50 in the assay on A2780 cells (SRB) came to 6.5 nM; at NAMPT (NAMPT enzymatic reaction) it was 18.5 nM.

Regarding `Cc1nc(S(=O)(=O)c2ccc(CNC(=O)c3cnc4nccn4c3)cc2)cs1` [N-{[4-(2-methyl-1,3-thiazole-4-sulfonyl)phenyl]methyl}imidazo[1,2-a]pyrimidine-6-carboxamide], the IC50 with A2780 cells (SRB) is 1000 to 10000 nM; on NAMPT (NAMPT enzymatic assay), 28.6 nM.

As for `COc1ccc(C(C)(C)C)cc1S(=O)(=O)c1ccc(CNC(=O)c2cc3ccncc3o2)cc1`, the results for the IC50 with A2780 cells (SRB) and at NAMPT (NAMPT enzymatic assay) were 10.1 nM and 21.8 nM, respectively.

As for `CCOc1cccc(S(=O)(=O)c2ccc(CNC(=O)c3cc4cnccc4[nH]3)cc2)c1F`, the IC50 was 11.6 nM in the assay on A2780 cells (SRB) and 31.2 nM on NAMPT (NAMPT enzymatic reaction).

In the case of `COc1c(Cl)ccc(S(=O)(=O)c2ccc(CNC(=O)c3cc4ccncc4s3)cc2)c1Cl`, the results for the IC50 with A2780 cells (SRB) and at NAMPT (NAMPT enzymatic reaction) were 6.7 nM and 5.1 nM, respectively.

For `Cc1ccccc1S(=O)(=O)c1ccc(CNC(=O)c2cc3cnccc3[nH]2)cc1` [N-({4-[(2-methylbenzene)sulfonyl]phenyl}methyl)-1H-pyrrolo[3,2-c]pyridine-2-carboxamide], the IC50 was 13 nM in the assay with A2780 cells (SRB assay) and 14 nM at NAMPT (NAMPT enzymatic reaction).

As to `O=C(NCc1ccc(S(=O)(=O)N2CCCCC2)cc1)c1cnc2[nH]ncc2c1` [N-{[4-(piperidine-1-sulfonyl)phenyl]methyl}-1H-pyrazolo[3,4-b]pyridine-5-carboxamide], the values for the IC50 in the assay on A2780 cells (SRB assay) and at NAMPT (NAMPT enzymatic reaction) were 33 nM and 17 nM, respectively.

In the case of `COc1cc(C(F)(F)F)ccc1S(=O)(=O)c1ccc(CNC(=O)c2cnc3nccn3c2)cc1`, the IC50 in the assay on A2780 cells (SRB) came to 22.4 nM; at NAMPT (NAMPT enzymatic assay), 4.4 nM.

Consider `O=C(NCc1ccc(S(=O)(=O)c2cccc(OC(F)F)c2)cc1)c1cnc2nccn2c1`, for which the 50% inhibitory concentration (IC50) in the assay on A2780 cells (SRB) was 5 nM; at NAMPT (NAMPT enzymatic assay) it was 2.1 nM.

On to `O=C(NCc1ccc(S(=O)(=O)c2ccc(F)c(C(F)(F)F)c2)cc1)c1cnc2[nH]ncc2c1` [N-[(4-{[4-fluoro-3-(trifluoromethyl)benzene]sulfonyl}phenyl)methyl]-1H-pyrazolo[3,4-b]pyridine-5-carboxamide], for which the IC50 in the assay with A2780 cells (SRB) was found to be 13.8 nM; at NAMPT (NAMPT enzymatic assay), 39.4 nM.

On to `CC(C)c1cccc(S(=O)(=O)c2ccc(CNC(=O)c3cc4cnccc4[nH]3)cc2)c1` [N-[(4-{[3-(propan-2-yl)benzene]sulfonyl}phenyl)methyl]-1H-pyrrolo[3,2-c]pyridine-2-carboxamide], for which the IC50 was determined as 4 nM in the assay on A2780 cells (SRB assay) and 6 nM at NAMPT (NAMPT enzymatic reaction).

Take `COc1ccc(S(=O)(=O)c2ccc(CNC(=O)c3ccc4nccn4c3)cc2)c(Cl)c1`: the figures for the IC50 with A2780 cells (SRB) and at NAMPT (NAMPT enzymatic reaction) were 11.4 nM and 16.7 nM, respectively.

As for `Cc1ccc(Cl)cc1S(=O)(=O)c1ccc(CNC(=O)c2ccc3nccn3c2)cc1` [N-({4-[(5-chloro-2-methylbenzene)sulfonyl]phenyl}methyl)imidazo[1,2-a]pyridine-6-carboxamide], the IC50 in the assay on A2780 cells (SRB) was 3.7 nM; at NAMPT (NAMPT enzymatic reaction) it was 1.9 nM.

For the compound `Cc1cc(F)cc(S(=O)(=O)c2ccc(CNC(=O)c3cc4cnccc4[nH]3)cc2)c1`, the 50% inhibitory concentration (IC50) came to 1.8 nM with A2780 cells (SRB) and 8.3 nM at NAMPT (NAMPT enzymatic reaction).

Consider `O=C(NCc1ccc(S(=O)(=O)c2ccc(F)c(F)c2)cc1)c1cnc2nccn2c1`, for which the IC50 in the assay on A2780 cells (SRB) stood at 36.3 nM; at NAMPT (NAMPT enzymatic reaction), 4.1 nM.

As to `Cn1c(S(=O)(=O)c2ccc(CNC(=O)c3cc4ccncc4s3)cc2)cc2ccccc21` [N-{[4-(1-methyl-1H-indole-2-sulfonyl)phenyl]methyl}thieno[2,3-c]pyridine-2-carboxamide], the IC50 in the assay with A2780 cells (SRB) turned out to be 3.4 nM; on NAMPT (NAMPT enzymatic assay), 5.2 nM.

Take `CCCCOc1ccc(S(=O)(=O)c2ccc(CNC(=O)c3cc4cnccc4[nH]3)cc2)c(C)c1`: the IC50 turned out to be 62.5 nM in the assay with A2780 cells (SRB) and 80 nM at NAMPT (NAMPT enzymatic reaction).

As to `Cc1ccc(S(=O)(=O)c2ccc(CNC(=O)c3cc4ccncc4o3)cc2)cc1Cl`, the values for the IC50 in the assay with A2780 cells (SRB) and at NAMPT (NAMPT enzymatic reaction) were 1.7 nM and 52.8 nM, respectively.
